Experimental data: patent US11447535B2, “GLP-1 analogues” (Sun Pharmaceutical Industries Limited, priority 2018, dated 2022)
Where no end group is shown, it is not given here. Moiety B = not defined here

Test system: SD rats
Test: Oral glucose tolerance test (OGTT) in rats; single injection; 1 mg/kg
Type: in vivo
Settings: OGTT; for % Glucose Reduction (Blood Glucose AUC0-120 min) / Comp/std Liraglutide (ratio of % glucose reduction): 1 mg/Kg dose, after 24 hrs; for blood glucose lowering effect vs liraglutide: 1 mg/Kg, at 24 hrs
Procedure: (§1) Animals were divided into three groups—a normal control group, a test group and a third semaglutide group, with 4 animals in each group. The animals were fasted for 12 hours before initiation of OGTT. To the test group animals, the Compound 1 was injected subcutaneously at 1 mg/kg dose. To the semaglutide group, a dose of 1 mg/kg was injected subcutaneously. After 22 hrs, 166 hrs and 334 hrs of subcutaneous injection of test drug or semaglutide, blood glucose was measured with blood glucose meter (time 0 measurements). All the animals were then given 2 g/kg of glucose solution orally. Blood glucose was measured at 20, 40, 60, 90 and 120 minutes following glucose challenge. Body weight and food intake was recorded. Blood glucose data was analyzed using Two way ANOVA followed by Bonferroni posttests using PRISM (Graph Pad version 5.03). Data of Blood glucose AUC0-120 min, was analyzed using t test.
as §1, with “animals,” for “animals, the”, “1, Compound 13 and Compound 16 were” for “1 was”, “compound” for “drug”

Substance: Compound 7: SEQ ID NO: 05, Moiety B; liraglutide with 2nd amino acid Ala replaced with Aib and additional 32nd amino acid Leu (HXXXGTFTSDVSSYLXGQAAXEFXAWLVRGRGXX; (2)..(2) Xaa = Aib; (3)..(3) Xaa = absent.; (4)..(4) Xaa = Glu.; (16)..(16) Xaa = Glu.; (21)..(21) Lys is substituted; (24)..(24) Xaa is Ile.; (33)..(33) Xaa is Leu.; (34)..(34) Xaa is absent.)
- % Glucose Reduction (Blood Glucose AUC0-120 min): 71.9%
- Comp/std Liraglutide (ratio of % glucose reduction): 1.73
- blood glucose lowering effect vs liraglutide: significantly higher than liraglutide

Substance: Compound 6: SEQ ID NO: 10, Moiety B; differs from liraglutide in having an additional Leu at 32nd position (HAEGTFTSDVSSYLEGQAAK(Moiety B)EFIAWLVRGRGL-OH; reading uncertain)
- % Glucose Reduction (Blood Glucose AUC0-120 min): 75.8%
- Comp/std Liraglutide (ratio of % glucose reduction): 1.83
- blood glucose lowering effect vs liraglutide: significantly higher than liraglutide
